Data as given in PubChem BioAssay (NCI).
Several values for one entry are separate records, joined by “and”; a condition that tells them apart may be missing. Identical values can stand only once.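 A five-concentration, 48-hour dose response in 96-well plates underlies each endpoint, interpolated linearly between surrounding concentrations. Abbreviation: GI50, concentration required for 50% inhibition of growth. TGI: total growth inhibition.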

Experiments:
Test in all cases: DTP human tumour cell line panel, 48 h
HCT-116 colon = system: HCT-116 colon
TK-10 renal = system: TK-10 renal
OVCAR-5 ovarian = system: OVCAR-5 ovarian
HCT-15 colon = system: HCT-15 colon
SF-295 CNS = system: SF-295 CNS
SF-268 CNS = system: SF-268 CNS
KM12 colon = system: KM12 colon
EKVX NSCLC = system: EKVX NSCLC
A549 NSCLC = system: A549 NSCLC
A498 renal = system: A498 renal

Row | Compound | TGI (HCT-116 colon) | TGI (TK-10 renal) | TGI (OVCAR-5 ovarian) | TGI (HCT-15 colon) | TGI (SF-295 CNS) | TGI (SF-268 CNS) | TGI (KM12 colon) | TGI (EKVX NSCLC) | TGI (A549 NSCLC) | TGI (A498 renal) | GI50 (TK-10 renal) | GI50 (OVCAR-5 ovarian) | GI50 (HCT-15 colon) | GI50 (A498 renal)
1 | CC1=NN(c2ccccc2)C(=O)/C1=C\c1c(C)[nH]n(-c2ccccc2)c1=O | > 100 µM | > 100 µM | > 100 µM | > 100 µM | > 100 µM | > 100 µM | > 100 µM | > 100 µM | > 100 µM | > 100 µM | – | – | – | –
2 | Cc1oc(N)c(S(=O)(=O)/C(C#N)=C/c2ccccc2[N+](=O)[O-])c1C | 78.5 µM | > 100 µM | 39.2 µM | > 100 µM | > 100 µM | > 100 µM | 73.2 µM | > 100 µM | 59.7 µM | > 100 µM | – | – | – | –
3 | C=CC(C)(C)/C(=C\CO[Si](C(C)C)(C(C)C)C(C)C)C(=O)N(C)c1ccccc1I | 17 µM | 26.2 µM | 27.5 µM | 30.8 µM | 28.8 µM | 24.5 µM | > 100 µM | 32.1 µM | 23.9 µM | 46 µM | – | – | – | –
4 | C(=Nc1ccc(-c2nc3ccccc3s2)cc1)c1cccs1 | > 100 µM | 78 µM | > 100 µM | > 100 µM | 68.8 µM | > 100 µM | > 100 µM | > 100 µM | > 100 µM | 76.6 µM | – | – | – | –
5 | O=C1CC(c2cccc([N+](=O)[O-])c2)C2(C(=O)NC(=S)NC2=O)C(c2cccc([N+](=O)[O-])c2)C1 (centres undefined) | 43.7 µM | 47.7 µM | > 100 µM | > 100 µM | > 100 µM | 43.4 µM | > 100 µM | 74.1 µM | > 100 µM | > 100 µM | – | – | – | –
6 | CC(Cl)(CCC(Cl)C(C)(C)Cl)C(=O)CBr (centres undefined) | 18.2 µM | 24.1 µM | 31.6 µM | 21.7 µM | 55.4 µM | 31.7 µM | 29.6 µM | 30.9 µM | 43 µM | 31.1 µM | – | – | – | –
7 | CC(C)(C)c1cc(C(C)(C)C)c(SC2OC(CO)C(O)C(O)C2O)c(O)c1O (centres undefined) | 29.1 µM | 46.3 µM | 32.1 µM | 18.8 µM | 28.3 µM | 20.4 µM | 20.8 µM | > 53.3 µM | 21.3 µM | 34.8 µM | – | – | – | –
8 | O=[N+]([O-])/C(Cl)=C(\NCCO)C(Cl)=C(Cl)Cl | 81.5 µM | > 100 µM | > 100 µM | 76.8 µM | > 100 µM | > 100 µM | > 100 µM | > 100 µM | > 100 µM | > 100 µM | – | – | – | –
9 | COC(=O)CCCc1nc2ccccc2nc1N=Nc1ccccc1 | > 100 µM | > 100 µM | > 100 µM | > 100 µM | > 100 µM | > 100 µM | > 100 µM | > 100 µM | > 100 µM | > 100 µM | – | – | – | –
10 | CC(=O)OC1C2CCC3CC2C2(SCCS2)C31 (centres undefined) | > 100 µM | > 100 µM | > 100 µM | > 100 µM | > 100 µM | > 100 µM | > 100 µM | > 100 µM | > 100 µM | > 100 µM | – | – | – | –
11 | Cc1c2cc[n+](C)cc2c(C)c2c1[nH]c1ccc(OCC(F)(F)F)cc12 | > 100 µM | > 100 µM | > 100 µM | > 100 µM | 2.22 µM | 0.638 µM | > 44.8 µM | 82.9 µM | > 100 µM | > 100 µM | 13.5 µM and > 100 µM | 12 µM and > 100 µM | 44.6 µM and > 100 µM | 47 µM and > 100 µM
12 | CCOC(=O)C1=C(N2CCCC2)C(=O)C(C(=O)OCC)C1 (centres undefined) | > 100 µM | > 100 µM | > 100 µM | > 100 µM | > 100 µM | > 100 µM | > 100 µM | > 100 µM | > 100 µM | > 100 µM | – | – | – | –
13 | C=C1C(=O)OC2C[C@@]3(C)CCCC(=C)C3CC12 (some centres undefined) | 15.2 µM | 23.5 µM | 33.6 µM | 24.7 µM | 23.6 µM | 28.2 µM | 5.94 µM | 31.5 µM | 27.7 µM | 19.2 µM | – | – | – | –
14 | CCOC(=O)c1c(SC(=O)c2ccc(Cl)cc2)n(-c2ccccc2)c(=S)n(-c2ccccc2)c1=O | > 100 µM | > 100 µM | > 100 µM | > 100 µM | > 100 µM | > 100 µM | > 100 µM | > 100 µM | > 100 µM | > 100 µM | – | – | – | –
15 | C#CCn1c(I)cc2c(c1=O)COC(=O)[C@]2(O)CC | > 100 µM | > 100 µM | > 100 µM | > 100 µM | > 100 µM | > 100 µM | > 100 µM | > 100 µM | > 100 µM | > 100 µM | – | – | – | –
16 | Cc1cccc(NC(=S)Nc2cccc(Cl)c2)n1 | > 100 µM | > 100 µM | > 100 µM | > 100 µM | > 78.4 µM | > 100 µM | > 100 µM | > 100 µM | > 100 µM | > 100 µM | – | – | – | –
17 | COc1ccc(/C=C/C(=O)c2cc(CN(C)C)c(O)c(CN(C)C)c2)cc1 | > 100 µM | > 100 µM | > 100 µM | > 100 µM | 91.1 µM | > 100 µM | 37.4 µM | > 100 µM | > 100 µM | 60.3 µM | – | – | – | –
